The source made the active and inactive calls. The calls are words filed in the database; no cut-off is given here.

In one assay the test system is Aorta. Put plainly: Vasodilative activity against […] Sprague-Dawley rat thoracic aorta assessed as reduction in phenylepinephrine-induced contraction. The format is functional, tissue-based.
Details: not given
On to `O=c1c2ccccc2nc2n1CCc1c-2[nH]c2c(Cl)cccc12`, for which the EC50 came out at 2.44 µM and the maximal effect (Emax) is 50.1%.
The corresponding values for `c1ccc2c(c1)CN1CCc3c([nH]c4ccccc34)C1N2` (stereo not given) [RUTAECARPANE] are 20.1 µM and 63.6%.
Regarding `COc1ccc2[nH]c3c(c2c1)CCN1C(=O)c2ccccc2OC31C` (stereo not given), the EC50 was 934 µM and the Emax was determined as 31.6%.
In the case of `COc1ccc2[nH]c3c(c2c1)CCn1c-3nc2cccc(Cl)c2c1=O`, the concentration giving a half-maximal response (EC50) came to 19.7 µM and the Emax is 37.1%.
For `COc1ccc2[nH]c3c(c2c1)CCn1c-3nc2ccccc2c1=O`, the half-maximal effective concentration (EC50) was found to be 55.1 µM and the maximal effect (Emax) was 42.6%.
In the case of `c1ccc2c(c1)CN1CCc3c([nH]c4ccccc34)C1=N2` [RUTAECARPENE], the EC50 turned out to be 25.1 µM and the maximal response (Emax) was 68.9%.
`Cc1ccc2[nH]c3c(c2c1)CCn1c-3nc2ccccc2c1=O`: the EC50 was determined as 1.24 µM and the maximum response (Emax) was determined as 85.1%.
Regarding `CC(=O)c1ccc2[nH]c3c(c2c1)CCn1c-3nc2ccccc2c1=O`, the EC50 came to 3.25 µM and the Emax stood at 68.2%.
Regarding `COc1ccc2[nH]c3c(c2c1)CCn1c-3nc2cc(Cl)ccc2c1=O`, the EC50 amounted to 22.5 µM and the Emax amounted to 33.9%.
The corresponding values for `COC(=O)C(Cc1c[nH]c2ccccc12)n1cnc2ccccc2c1=O` (stereo not given) are 5460 µM and 15.5%.
With `COc1ccc2[nH]c3c(c2c1)CCn1c-3c(O)c2ccccc2c1=O`, the 50% effective concentration (EC50) is 5700 µM and the Emax worked out at 13.2%.
With `COc1ccc2[nH]c3c(c2c1)CCn1c-3nc2ccc(Br)cc2c1=O`, the EC50 came out at 9.4 µM and the Emax was found to be 40.3%.
Consider `O=c1c2cc(Cl)ccc2nc2n1CCc1c-2[nH]c2ccccc12`, for which the EC50 is 32.3 µM and the maximal effect (Emax) is 40.6%.
`O=C1c2ccccc2OC2c3[nH]c4ccccc4c3CCN12` (stereo not given): the EC50 was 220 µM and the Emax is 39.8%.
With `O=c1c2ccccc2nc2n1CCc1c-2[nH]c2c(Cl)cc(Cl)c(Cl)c12`, the concentration giving a half-maximal response (EC50) amounted to 2.31 µM and the Emax came out at 51%.
As for `Cc1cccc2c3c([nH]c12)-c1nc2ccccc2c(=O)n1CC3`, the EC50 was 2.99 µM and the Emax stood at 47%.
Consider `O=c1c2ccccc2c(O)c2n1CCc1c-2[nH]c2ccccc12`, for which the EC50 was determined as 15400 µM and the maximal response (Emax) worked out at 14.1%.
Take `O=c1c2c(Cl)cccc2nc2n1CCc1c-2[nH]c2ccccc12`: the EC50 was 16.8 µM and the maximal effect (Emax) came out at 39.6%.
Taken in the same sequence, the figures for `CC12Oc3ccccc3C(=O)N1CCc1c2[nH]c2ccccc12` (stereo not given) were 1590 µM and 29.9%.
The corresponding values for `COc1ccc2[nH]c3c(c2c1)CCn1c-3nc2ccc(Cl)cc2c1=O` are 2.11 µM and 55.2%.
As to `O=C1c2ccccc2NC2(C(F)(F)F)c3[nH]c4ccccc4c3CCN12` (stereo not given), the EC50 was found to be 7.86 µM and the maximal response (Emax) worked out at 42.5%.
As to `O=c1c2ccc(Cl)cc2nc2n1CCc1c-2[nH]c2ccccc12`, the EC50 is 21.1 µM and the Emax is 36.6%.
For the molecule `O=c1c2ccccc2nc2n1CCc1c-2[nH]c2ccccc12` [RUTAECARPINE], the EC50 worked out at 1.33 µM and the maximal effect (Emax) came to 79.3%.
The corresponding values for `COc1ccc2[nH]c3c(c2c1)CCN1C(=O)c2ccccc2OC31` (stereo not given) are 63600 µM and 13%.

For a further assay, the system named is Rattus norvegicus. In words: Antihypertensive activity against phenol-induced hypertension in Sprague-Dawley rat assessed as decrease in mean arterial pressure at 300 µg/kg, iv in presence of capsaicin administered 4 days before compound administration. Conditions: Artery.
As for `Cc1ccc2[nH]c3c(c2c1)CCn1c-3nc2ccccc2c1=O`, the result was inactive.

The subject of a further assay is Rattus norvegicus. In words: Antihypertensive activity against phenol-induced hypertension in iv dosed Sprague-Dawley rat assessed as decrease in mean arterial blood pressure. Type of assay: functional, organism-based. The following applies: Artery.
Regarding `Cc1ccc2[nH]c3c(c2c1)CCn1c-3nc2ccccc2c1=O`, the Activity result was “Dose-dependent effect”.

These data come from ChEMBL document CHEMBL1152803, “Synthesis and vasodilator effects of rutaecarpine analogues which might be involved transient receptor potential vanilloid subfamily, member 1 (TRPV1)” (Bioorg Med Chem, 2009).
